Data on 1 compound can be found in paper PMC5175178, “Development of an in-vivo active reversible butyrylcholinesterase inhibitor” (Scientific Reports, 2016).

SMILES strings stand for the structures. Like-named read-outs stand apart in the source and are kept apart here.

The test system of series [1] is Aβ(1–42)-induced cytotoxicity in SH-SY5Y cells. Put plainly: Neuroprotection against Aβ(1–42)-induced cytotoxicity, PI flow cytometry. The class given is cell-based, human. Conditions: 10 μM, 5 μM Aβ(1–42), 48 h. As to the method: Neurotoxicity induced by Aβ species (mainly Aβ(1–42)) is a contributor to the pathogenesis of neurodegeneration in AD[41]. […]. […] […].
Supplementary Figure 8. […]. […].
[…]; Sigma, St. Louis, MO, USA). […] SH-SY5Y cells were seeded into a 24-well culture plate (1.2 ×10^5/well) and next day, treated as described above. After 48 h treatment, cells were washed with pre-warmed PBS and further stained with PI solution (30 µM) for 15 min at 37 °C. Cells were then analyzed for cytotoxicity by flow cytometry on FACS Calibur (BD Bioscience, San Jose, CA, USA). The percentage of PI positive cells (PI^pos) was evaluated using FlowJo software (Ashland, OR, USA) and results are presented as a relative fold increase of PI^pos corresponding vehicle treatment (DMSO control).
(A flow cytometer gives signals particle by particle.)

Series [2] in a line: Caco-2 monolayer bidirectional permeability assay. Conditions: human, Caco-2, Papp(A–B), apical-to-basolateral, 100 µM donor. A general note: Passage across Caco-2 layers is used to estimate intestinal permeability.
Experimental: They were grown on Transwell® culture inserts with a polycarbonate membrane (diameter, 12 mm; pore size, 0.4 µm). 50,000 cells/filter membranes were used for seeding and the medium was changed every two days. At day 18, transepithelial electrical resistance (TEER) was measured for each filter with Caco-2 cell monolayers. […] The samples were acidified by dilution with the same volume of 0.01M HCl before fluorescence measurements.
Ringer buffer with 10 mM d-glucose or 10 mM mannitol on apical and basolateral side of the tissue, respectively, was used as an incubation saline. […] The stock solutions were added either to the apical or to the basolateral compartment to obtain bidirectional permeability measurements. Six samples were withdrawn in 20 min intervals. Each time 300 µl was taken from the 1500 µL basolateral acceptor compartment and 100 µL from the 500 µL apical acceptor compartment. These volumes were immediately replaced by the appropriate fresh incubation saline. […] All apparent permeability coefficients were calculated as described previously^24.
The next series deals with T1, Aβ1–42 aggregation (Homo sapiens, UniProt P05067).
T1 construct: Recombinant human HFIP-pretreated Aβ1–42 peptide (Merck Millipore, Darmstadt, Germany); purchased Merck Millipore, Darmstadt, Germany
Put plainly: Aβ1–42 aggregation inhibition, dot-blot assay. Conditions: 10 μM compound. Type of series: biochemical. The protocol: Recombinant human HFIP-pretreated Aβ1–42 peptide (Merck Millipore, Darmstadt, Germany) was dissolved in DMSO to give 100 μM stock solution. Prior to the incubations, the Aβ1–42 peptide stock solution was diluted in HEPES buffered solution (150 mM HEPES, pH 7.4, 150 mM NaCl) to give 10 μM Aβ1–42. […]; 10 μM final concentration), and added to the black-walled 96-well plates in quadruplicate, and diluted with HEPES buffered solution to a final volume of 100 μL. To determine the blank value (b), 1% DMSO in HEPES buffered solution replaced the Aβ1–42 peptide solution. The sealed 96-well plate was placed in an incubator at 37 °C with continuous shaking, for 24 h. Then 10 μL from each well were spotted on nitrocellulose membrane. The membrane was dried and blocked with 5% non-fat milk in TBST (50 mM Tris, pH 7.4, 150 mM NaCl, 0.1% Tween 20) at room temperature for 30 min, washed with TBST, and probed with the LOC anti-amyloid fibrils antibody (Millipore, 1:10,000, in 2% non-fat milk-TBST) or the OC anti-amyloid fibrils antibody (Millipore, 1:10,000, in 2% non-fat milk-TBST), for 1 h. […] The blots were developed with Pierce ECL Western Blotting Substrate (Thermo Scientific) for 2 min, detected with a Bio-Rad ChemiDoc MP Imaging System, and further analyzed with Image Lab software (Bio-Rad). Inhibition of the Aβ1–42 aggregation was quantified using equation: […]

T1 sequence (P05067 672-713): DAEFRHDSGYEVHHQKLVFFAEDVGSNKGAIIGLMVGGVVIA

Regarding `COCCN(CC1CCCN(Cc2ccccc2)C1)S(=O)(=O)c1ccc2ccccc2c1` (racemic) [compound 2, (±)-N-((1-benzylpiperidin-3-yl)methyl)-N-(2-methoxyethyl)naphthalene-2-sulfonamide], the “neuroprotective effect on Aβ(1–42)-induced cell death” value in series [1] is “reversed Aβ(1–42)-induced cell death”. In series [2], this compound yielded an apical-to-basolateral permeability (Papp A→B) at 120 min, 100 µM of 30 ± 10.7 ×10⁻⁶ cm/s. For the same compound, the figures for the inhibition at 10 µM at Aβ1–42 aggregation (read-out: Percent inhibition ±SEM (%) Dot blot (LOC antibody)) and on Aβ1–42 aggregation (read-out: Percent inhibition ±SEM (%) Dot blot (OC antibody)) were 12.7 ± 8.9% and 2.7 ± 9.32%, respectively.

The term Papp A→B denotes the apparent permeability from the apical to the basolateral side of a cell layer. The term inhibition denotes the change of the read-out against control, counted positive when it falls.
